The Ki is the equilibrium dissociation constant of an inhibitor or competing ligand from its target. As a reminder, the IC50 is the concentration at which inhibition is half-maximal. By inhibition is commonly meant the drop in the measured response relative to a control, in per cent.

Assay [1] concerns the target T1, Adenosine receptor A1 (Rattus norvegicus, UniProt P25099).
T1 sequence (P25099 whole entry): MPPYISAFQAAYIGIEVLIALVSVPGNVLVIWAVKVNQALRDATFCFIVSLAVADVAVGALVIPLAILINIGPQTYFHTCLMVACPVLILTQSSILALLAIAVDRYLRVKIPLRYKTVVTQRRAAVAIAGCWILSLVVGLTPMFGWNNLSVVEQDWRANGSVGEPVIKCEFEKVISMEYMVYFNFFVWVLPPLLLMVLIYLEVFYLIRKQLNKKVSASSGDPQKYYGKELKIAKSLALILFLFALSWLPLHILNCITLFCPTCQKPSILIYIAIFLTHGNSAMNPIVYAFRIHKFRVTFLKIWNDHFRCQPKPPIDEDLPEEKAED
In words: Displacement of [3H]CCPA from A1 receptor in rat brain cortex membranes by liquid scintillation counting method. The assay is classed as cell membranes.

For assay [2], the target named is T2, Adenosine receptor A2b (Homo sapiens) (UniProt P29275).
T2 sequence (whole entry): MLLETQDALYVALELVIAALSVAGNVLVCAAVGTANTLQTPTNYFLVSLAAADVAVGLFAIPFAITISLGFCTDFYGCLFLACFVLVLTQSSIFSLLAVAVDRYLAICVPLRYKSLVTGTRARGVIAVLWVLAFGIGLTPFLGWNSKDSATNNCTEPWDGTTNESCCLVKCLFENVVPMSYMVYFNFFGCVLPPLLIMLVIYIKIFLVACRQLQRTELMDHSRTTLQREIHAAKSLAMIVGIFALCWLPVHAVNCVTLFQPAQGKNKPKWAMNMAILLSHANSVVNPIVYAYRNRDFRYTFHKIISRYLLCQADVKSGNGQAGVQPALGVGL
In words: Displacement of [3H]PSB-603 from human A2B receptor expressed in CHO cell membrane at 1 uM relative to control. It is filed as cell membranes. (In general: Loss of bound radioactivity is the signal in a displacement assay; it reports binding, not function.)

In assay [3] the target is T3, Adenosine receptor A3 (Homo sapiens) (UniProt P0DMS8).
T3 sequence (whole entry): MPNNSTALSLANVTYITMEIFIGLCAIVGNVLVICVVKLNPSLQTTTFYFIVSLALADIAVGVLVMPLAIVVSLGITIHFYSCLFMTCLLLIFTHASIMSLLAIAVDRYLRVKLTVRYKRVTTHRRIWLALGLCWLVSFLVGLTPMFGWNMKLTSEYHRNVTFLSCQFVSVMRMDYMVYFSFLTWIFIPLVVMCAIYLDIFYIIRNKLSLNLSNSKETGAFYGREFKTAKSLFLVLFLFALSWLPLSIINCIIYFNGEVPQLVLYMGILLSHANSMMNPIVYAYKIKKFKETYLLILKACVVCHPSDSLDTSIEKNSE
In words: Displacement of [3H]PSB-11 from human A3 receptor expressed in CHO cell membrane at 10 uM by liquid scintillation counting method relative to control relative to control. The assay is classed as cell membranes.

The target of assay [4] is T4, Amine oxidase [flavin-containing] B (Homo sapiens, UniProt P27338).
T4 sequence (P27338 whole entry): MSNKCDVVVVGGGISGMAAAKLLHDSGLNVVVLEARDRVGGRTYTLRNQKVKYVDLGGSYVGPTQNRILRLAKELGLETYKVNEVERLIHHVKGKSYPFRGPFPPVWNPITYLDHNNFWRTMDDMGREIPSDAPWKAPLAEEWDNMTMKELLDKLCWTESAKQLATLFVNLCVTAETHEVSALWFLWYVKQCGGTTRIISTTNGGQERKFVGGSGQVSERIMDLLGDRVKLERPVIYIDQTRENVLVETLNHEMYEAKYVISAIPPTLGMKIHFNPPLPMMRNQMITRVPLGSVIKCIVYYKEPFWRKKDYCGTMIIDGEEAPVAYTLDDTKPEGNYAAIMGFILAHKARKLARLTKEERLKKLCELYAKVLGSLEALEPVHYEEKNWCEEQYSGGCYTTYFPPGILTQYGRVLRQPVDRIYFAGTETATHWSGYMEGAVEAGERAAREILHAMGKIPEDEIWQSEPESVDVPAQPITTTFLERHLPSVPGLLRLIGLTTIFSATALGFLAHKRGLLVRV
In words: Inhibition of recombinant human MAO-B expressed in baculovirus infected BTI insect cells preincubated for 30 mins followed by addition of p-tyramine as substrate measured over 45 mins by Amplex Red MAO assay.

The target in assay [5] is Adenosine receptor A2a (Rattus norvegicus) (UniProt P30543). Kind of assay: Displacement of [3H]MSX from A2A receptor in rat brain striatum membranes at 1 uM measured after 30 mins by liquid scintillation counting method relative to control. The assay is classed as cell membranes.
Sequence of Adenosine receptor A2a (Rattus norvegicus) (P30543 whole entry): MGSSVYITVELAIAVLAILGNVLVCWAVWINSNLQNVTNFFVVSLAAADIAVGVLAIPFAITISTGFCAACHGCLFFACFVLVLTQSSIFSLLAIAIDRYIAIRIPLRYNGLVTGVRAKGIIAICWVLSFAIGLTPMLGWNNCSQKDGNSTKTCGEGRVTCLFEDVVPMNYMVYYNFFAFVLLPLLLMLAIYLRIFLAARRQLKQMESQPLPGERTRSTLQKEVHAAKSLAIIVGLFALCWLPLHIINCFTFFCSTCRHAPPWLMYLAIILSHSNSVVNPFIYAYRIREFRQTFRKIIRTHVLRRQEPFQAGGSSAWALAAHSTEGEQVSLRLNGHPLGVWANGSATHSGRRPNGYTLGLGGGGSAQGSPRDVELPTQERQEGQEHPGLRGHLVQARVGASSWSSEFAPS
Assay [6] concerns the target T5, Adenosine receptor A3 (Homo sapiens, UniProt P0DMS8).
T5 sequence (P0DMS8 whole entry): T3 sequence (whole entry)
In words: Displacement of [3H]PSB-11 from human A3 receptor expressed in CHO cell membrane by liquid scintillation counting method relative to control. It is filed as cell membranes.

In assay [7] the target is T4, Amine oxidase [flavin-containing] B. Kind of assay: Inhibition of recombinant human MAO-B expressed in baculovirus infected BTI insect cells at 10 uM preincubated for 30 mins followed by addition of p-tyramine as substrate measured over 45 mins by Amplex Red MAO assay relative to control. The settings on record: 0.75 h.
In assay [8] the target is T6, Adenosine receptor A1 (Rattus norvegicus) (UniProt P25099).
T6 sequence (whole entry): T1 sequence (P25099 whole entry)
Kind of assay: Displacement of [3H]CCPA from A1 receptor in rat brain cortex membranes at 1.5 uM by liquid scintillation counting method. It is filed as cell membranes.

Assay [9] deals with T7, Adenosine receptor A2b (Homo sapiens, UniProt P29275).
T7 sequence (P29275 whole entry): T2 sequence (whole entry)
Kind of assay: Displacement of [3H]PSB-603 from human A2B receptor expressed in CHO cell membrane. It is filed as cell membranes.

The target of assay [10] is Adenosine receptor A2a (Rattus norvegicus, UniProt P30543). Kind of assay: Displacement of [3H]MSX from A2A receptor in rat brain striatum membranes measured after 30 mins by liquid scintillation counting method. The assay is classed as cell membranes.
Sequence of Adenosine receptor A2a (P30543 whole entry): as above
The target of assay [11] is T8, Amine oxidase [flavin-containing] A (Homo sapiens, UniProt P21397).
T8 sequence (P21397 whole entry): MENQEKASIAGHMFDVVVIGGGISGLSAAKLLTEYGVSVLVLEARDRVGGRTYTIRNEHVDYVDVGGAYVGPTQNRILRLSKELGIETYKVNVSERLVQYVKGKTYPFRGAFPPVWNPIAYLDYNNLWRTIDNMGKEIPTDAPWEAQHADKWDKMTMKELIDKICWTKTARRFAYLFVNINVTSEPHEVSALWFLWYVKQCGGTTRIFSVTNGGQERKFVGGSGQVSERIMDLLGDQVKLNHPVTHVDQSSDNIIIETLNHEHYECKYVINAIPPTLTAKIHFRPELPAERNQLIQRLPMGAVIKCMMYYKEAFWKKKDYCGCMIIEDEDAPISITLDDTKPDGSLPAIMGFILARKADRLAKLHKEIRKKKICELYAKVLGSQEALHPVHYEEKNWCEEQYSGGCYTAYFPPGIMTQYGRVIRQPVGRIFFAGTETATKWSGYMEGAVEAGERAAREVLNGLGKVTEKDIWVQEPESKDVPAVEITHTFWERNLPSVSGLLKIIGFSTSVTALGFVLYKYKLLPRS
Kind of assay: Inhibition of recombinant human MAO-A expressed in baculovirus infected BTI insect cells preincubated for 30 mins followed by addition of p-tyramine as substrate measured over 45 mins by Amplex Red MAO assay.

For assay [12], the target named is T8, Amine oxidase [flavin-containing] A. In words: Inhibition of recombinant human MAO-A expressed in baculovirus infected BTI insect cells at 10 uM preincubated for 30 mins followed by addition of p-tyramine as substrate measured over 45 mins by Amplex Red MAO assay relative to control. The settings on record: 0.75 h.

Each structure is given as a SMILES string.

As to `Cn1c(=O)c2c(nc3n2CCN(Cc2cn(-c4ccc(Cl)cc4)nn2)C3)n(C)c1=O`, the Ki in assay [1] is > 1500 nM; in [6], > 10000 nM; in assay [9], > 1000 nM; in [10], > 1000 nM. Moreover, the Activity in assay [2] amounted to 27%; in assay [3], 11%; in assay [5] it was 26%; in assay [8] it was 36%. Moreover, the IC50 in assay [4] was > 10000 nM. Moreover, the inhibition at 10 µM in assay [7] was 12%.

Consider `Cn1c(=O)c2c(nc3n2CCN(CC#Cc2ccc(Cl)c(Cl)c2)C3)n(C)c1=O`, for which the Ki is > 1500 nM in [1], > 10000 nM in [6], > 1000 nM in assay [9] and > 1000 nM in assay [10]. Also, the Activity in [2] came to 15%; in [3], 35%; in assay [5], 31%; in [8], 29%. In [4], the IC50 is > 10000 nM. For the same compound, the inhibition at 10 µM in assay [7] amounted to 31%.

Regarding `Cn1c(=O)c2c(nc3n2CCN(CCCn2ccnc2)C3)n(C)c1=O`, the Ki in assay [1] is > 1500 nM; in assay [6], > 10000 nM; in assay [9] it was > 1000 nM; in [10], > 1000 nM. For the same compound, the Activity worked out at 4% in [2], 11% in assay [3], 13% in [5] and 13% in [8]. Also, the IC50 in assay [4] is > 10000 nM. The inhibition at 10 µM in assay [7] was found to be 2%.

Take `COc1cccc(CCN2CCn3c(nc4c3c(=O)n(C)c(=O)n4C)C2)c1OC`: the Ki in [1] is > 1500 nM; in assay [6] it was > 10000 nM; in assay [9], > 1000 nM; in assay [10], > 1000 nM. The Activity came to 8% in assay [2], 43% in [3], 30% in [5] and 5% in assay [8]. For the same compound, the IC50 in assay [4] is > 10000 nM. In addition, in assay [7], the inhibition at 10 µM was 1%.

In the case of `COc1cccc(C#CCN2CCn3c(nc4c3c(=O)n(C)c(=O)n4C)C2)c1`, the Ki in assay [1] is > 1500 nM; in assay [6], > 10000 nM; in assay [9], > 1000 nM; in [10], > 1000 nM. For the same compound, the Activity in [2] is 7%; in assay [3] it was 9%; in assay [5] it was 32%; in [8], 17%. Also, the IC50 in assay [4] was > 10000 nM. In addition, the inhibition at 10 µM in assay [7] amounted to 13%.

Regarding `Cn1c(=O)c2c(nc3n2CCN(CCc2ccc(F)c(F)c2)C3)n(C)c1=O`, the Ki in assay [1] was > 1500 nM; in assay [6], > 10000 nM; in assay [9], > 1000 nM; in [10], > 1000 nM. Moreover, the Activity in assay [2] stood at 12%; in assay [3], 11%; in assay [5], 19%; in assay [8] it was 10%. In addition, the inhibition at 10 µM in assay [7] stood at 60%.

In the case of `COc1ccc(CCN2CCn3c(nc4c3c(=O)n(C)c(=O)n4C)C2)cc1OC`, the Ki in assay [1] was > 1500 nM; in [6], > 10000 nM; in assay [9], > 1000 nM; in assay [10], > 1000 nM. Moreover, the Activity is 6% in [2], 43% in assay [3], 16% in [5] and -2% in [8]. Further, in assay [4], the IC50 was > 10000 nM. In addition, the inhibition at 10 µM in [7] came out at 13%.

Consider `Cn1c(=O)c2c(nc3n2CCN(CCc2ccccc2)C3)n(C)c1=O`, for which the Ki in assay [1] is > 1500 nM; in [6], > 10000 nM; in assay [9] it was > 1000 nM; in assay [10] it was 9610 nM. Moreover, the values for the Activity in assay [2], in assay [3] and in [8] were 11%, 43% and 9%, respectively. Besides, the IC50 in assay [4] and in assay [11] was > 10000 nM in each case. Besides, the inhibition at 10 µM is 39% in assay [7] and -12% in assay [12].

Regarding `Cn1c(=O)c2c(nc3n2CCN(CC#Cc2cccc(Cl)c2)C3)n(C)c1=O`, the Ki in assay [1] is > 1500 nM; in [6], > 10000 nM; in assay [9], > 1000 nM; in assay [10], > 1000 nM. The Activity amounted to 7% in [2], 20% in [3], 42% in assay [5] and 17% in assay [8]. For the same compound, the IC50 in [4] and in [11] was > 10000 nM each time. Besides, the inhibition at 10 µM in [7] amounted to 5%; in [12], 19%.

Regarding `COc1cccc(CCN2CCn3c(nc4c3c(=O)n(C)c(=O)n4C)C2)c1`, the Ki is > 1500 nM in assay [1], > 10000 nM in [6], > 1000 nM in assay [9] and > 1000 nM in [10]. For the same compound, the Activity in assay [2] is 5%; in assay [3], 23%; in [5], 31%; in assay [8], 17%. For the same compound, the IC50 in assay [4] is > 10000 nM. For the same compound, the inhibition at 10 µM in assay [7] is 10%.

As for `COc1ccccc1CCN1CCn2c(nc3c2c(=O)n(C)c(=O)n3C)C1`, the Ki in assay [1] is > 1500 nM; in assay [6] it was > 10000 nM; in assay [9], > 1000 nM; in [10] it was > 1000 nM. For the same compound, the Activity in [2] worked out at 7%; in assay [3] it was 39%; in assay [5], 15%; in assay [8] it was 9%. In assay [4], the IC50 is > 10000 nM. The inhibition at 10 µM in assay [7] came to 4%.

For the origin of these results see ChEMBL document CHEMBL4428125, “8-Substituted 1,3-dimethyltetrahydropyrazino[2,1-f]purinediones: Water-soluble adenosine receptor antagonists and monoamine oxidase B inhibitors” (Bioorg Med Chem, 2016).
